In patent US11946934B2, “Biomarker for predicting the sensitivity to a protein kinase inhibitor and a use thereof” (Wellmarker Bio Co., LTD., priority 2014, dated 2024):
Entries after “also recorded” stand apart in the source; their conditions may differ.

Key:
HCT8 [1] = experiment: Cell invasion (cell metastasis); format: cell-based; details: HCT8, FIG. 7e
Experimental: HCT8, a colon cancer cell line where RON is always phosphorylated, was treated with CJ12524 in order to confirm the degree of cell invasion.

[2] = tested on: Colo320HSR introduced with RON-active Δ160 gene; experiment: Induction of apoptosis; format: cell-based
Description: (§1) Additionally, Colo320HSR, the colon cancer cell line in which RON is not expressed, was introduced with the RON-active Δ155 gene and the RON-active Δ160 gene, which are constantly active in the Colo320HSR, and treated with CJ12524 at various concentrations in order to confirm the presence of apoptosis.

[3] = tested on: Colo320HSR introduced with RON-active Δ155 gene; experiment: Induction of apoptosis; format: cell-based
Description: as §1

[4] = tested on: HCT8 cell line xenograft in nude mice; experiment: RON-active cancer cell xenograft model, tumor size, tumor weight, body weight; format: in vivo, mouse
Experimental: For analyzing the drug sensitivity to CJ12524 in an in-vivo state, the present inventors transplanted a cancer cell line which was determined to be positive against the RON activity into nude mice, and thereby a cancer cell-derived xenograft model ([…]) was prepared.

RON phosphorylation = target: T1, RON phosphorylation (Homo sapiens, UniProt Q04912); experiment: RON phosphorylation in tumor tissue of the HCT8 xenograft model (immunochemical staining, western blot); format: in vivo; details: after completion of administration, FIG. 8c, 8d
T1 construct: endogenous in cells; host or cells: HCT8 (cultured, and as xenograft tumour in nude mice)
Experimental: (§2) The cells in the sample were lysed using RIPA buffer and the protein was extracted therefrom using a high speed centrifuge. The protein in an amount of 30 μg per cell was separated by electrophoresis, transferred onto a PDVF membrane by western blot, and allowed to react with RON antibodies, which were diluted in 5% skim milk at a 1:2000 ratio, at 4° C. for 12 hours. Then, the resultant was washed 3 times with TBS-T buffer for 15 minutes per wash, reacted with the secondary antibodies, which were diluted in 5% skim milk at a 1:2000 ratio, at room temperature for 2 hours, washed 3 times with TBS-T buffer for 15 minutes per wash. The illumination of the PDVF membrane was induced using ECL buffer and the expression of the RON protein was developed using an X-ray film. Additionally, 1 μg of the RON antibody was added to the protein in an amount of 500 μg per cell by immunoprecipitation method, reacted at 4° C. for 12 hours, and anti-antibody beads were added thereto to immunoprecipitate the RON antibody. The resultant was separated by electrophoresis, transferred onto a PDVF membrane by western blot, and allowed to react with p-Tyr antibodies, which were diluted in 5% skim milk at a 1:1000 ratio, at 4° C. for 12 hours. […]

HCT8 [5] = experiment: Induction of apoptosis; format: cell-based
Experimental: (§3) HT29 and HCT8, the colon cancer cell lines which have a high p-RON expression level because RON is always phosphorylated, were treated with CJ12524 in order to confirm the presence of apoptosis.

HT29 = experiment: Induction of apoptosis; format: cell-based
Experimental: as §3

RON-active Δ160 = experiment: Inhibition of RON phosphorylation in Colo320HSR introduced with RON variant; format: cell-based; details: Colo320HSR with RON-active Δ160 gene
Experimental: as §2

RON-active Δ155 = target: T2, RON-active Δ155 (Homo sapiens, UniProt Q04912, DEL574-682/INS813Q); experiment: as above; format: cell-based; details: Colo320HSR with RON-active Δ155 gene
T2 construct: expressed in transfected cells; host or cells: Colo320HSR
Experimental: as §2

RON (p-RON) in HCT8 = target: T3, RON (p-RON) in HCT8 (Homo sapiens, UniProt Q04912); experiment: Inhibition of RON phosphorylation in HCT8 colon cancer cells; format: cell-based; details: HCT8, various concentrations
T3 construct: endogenous in cells; host or cells: HCT8 (cultured, and as xenograft tumour in nude mice)
Experimental: as §2

RON (p-RON) in HT29 = experiment: Inhibition of RON phosphorylation in HT29 colon cancer cells; format: cell-based; details: HT29, various concentrations
Experimental: as §2

[6] = tested on: MKN1 cells transplanted into Balb/c nude mice; experiment: Stomach cancer cell xenograft mouse model without RON activity, tumor volume; format: in vivo; details: 30 mpk and 100 mpk oral daily, FIG. 9
Description: It was confirmed whether tumor formation can be inhibited by CJ12537 in a stomach cancer xenograft mouse model without RON activity.
Specifically, 5-to 6-week-old Balb/c nude mice were subcutaneously injected with 1×10^7 cells (MKN1 parent, MKN1 RONΔ160 stable cell) and Matrigel at a 1:1 (v/v) ratio. When the tumor size grew to a size of 90 mm^3 to 100 mm^3, the mice were divided into groups and administered with drugs. Vehicle, CJ12537 (30 mpk), CJ12537 (100 mpk), and positive control (Amgen; 30 mpk) were orally administered daily. The tumor size was measured once in three days. Upon completion of the administration, the mice were sacrificed and tissues were ablated and the weight of tumor was measured. In particular, proteins were extracted from the tissues and the changes in expression pattern of p-RON and related proteins were confirmed by western blot analysis. Additionally, for confirming the change in tumor size, the tumor size was measured once every three days and compared and analyzed even after the completion of drug administration.

[7] = tested on: Colo320HSR introduced with RON Δ155; experiment: Colo320HSR xenograft animal model, inhibition of tumor growth; format: in vivo; details: RON-active variant Δ155
Experimental: (§4) Specifically, an animal model using the Colo320HSR cell line without RON activity (control group) and an animal model using the cell line introduced with the RON-active Δ155 gene and the RON-active Δ160 gene, which are constantly expressed, or a RON M1254T mutant were prepared, and their effects of inhibiting tumor formation by CJ12537 were compared.

[8] = tested on: Colo320HSR introduced with RON Δ160; experiment: as above; format: in vivo
Experimental: as §4

[9] = tested on: Colo320HSR control (pMET & pRON negative, without RON activity); experiment: as above; format: in vivo; details: various concentrations
Experimental: as §4

[10] = various concentrations, 14 days, FIG. 8a

T3 sequence (Q04912 25-1400): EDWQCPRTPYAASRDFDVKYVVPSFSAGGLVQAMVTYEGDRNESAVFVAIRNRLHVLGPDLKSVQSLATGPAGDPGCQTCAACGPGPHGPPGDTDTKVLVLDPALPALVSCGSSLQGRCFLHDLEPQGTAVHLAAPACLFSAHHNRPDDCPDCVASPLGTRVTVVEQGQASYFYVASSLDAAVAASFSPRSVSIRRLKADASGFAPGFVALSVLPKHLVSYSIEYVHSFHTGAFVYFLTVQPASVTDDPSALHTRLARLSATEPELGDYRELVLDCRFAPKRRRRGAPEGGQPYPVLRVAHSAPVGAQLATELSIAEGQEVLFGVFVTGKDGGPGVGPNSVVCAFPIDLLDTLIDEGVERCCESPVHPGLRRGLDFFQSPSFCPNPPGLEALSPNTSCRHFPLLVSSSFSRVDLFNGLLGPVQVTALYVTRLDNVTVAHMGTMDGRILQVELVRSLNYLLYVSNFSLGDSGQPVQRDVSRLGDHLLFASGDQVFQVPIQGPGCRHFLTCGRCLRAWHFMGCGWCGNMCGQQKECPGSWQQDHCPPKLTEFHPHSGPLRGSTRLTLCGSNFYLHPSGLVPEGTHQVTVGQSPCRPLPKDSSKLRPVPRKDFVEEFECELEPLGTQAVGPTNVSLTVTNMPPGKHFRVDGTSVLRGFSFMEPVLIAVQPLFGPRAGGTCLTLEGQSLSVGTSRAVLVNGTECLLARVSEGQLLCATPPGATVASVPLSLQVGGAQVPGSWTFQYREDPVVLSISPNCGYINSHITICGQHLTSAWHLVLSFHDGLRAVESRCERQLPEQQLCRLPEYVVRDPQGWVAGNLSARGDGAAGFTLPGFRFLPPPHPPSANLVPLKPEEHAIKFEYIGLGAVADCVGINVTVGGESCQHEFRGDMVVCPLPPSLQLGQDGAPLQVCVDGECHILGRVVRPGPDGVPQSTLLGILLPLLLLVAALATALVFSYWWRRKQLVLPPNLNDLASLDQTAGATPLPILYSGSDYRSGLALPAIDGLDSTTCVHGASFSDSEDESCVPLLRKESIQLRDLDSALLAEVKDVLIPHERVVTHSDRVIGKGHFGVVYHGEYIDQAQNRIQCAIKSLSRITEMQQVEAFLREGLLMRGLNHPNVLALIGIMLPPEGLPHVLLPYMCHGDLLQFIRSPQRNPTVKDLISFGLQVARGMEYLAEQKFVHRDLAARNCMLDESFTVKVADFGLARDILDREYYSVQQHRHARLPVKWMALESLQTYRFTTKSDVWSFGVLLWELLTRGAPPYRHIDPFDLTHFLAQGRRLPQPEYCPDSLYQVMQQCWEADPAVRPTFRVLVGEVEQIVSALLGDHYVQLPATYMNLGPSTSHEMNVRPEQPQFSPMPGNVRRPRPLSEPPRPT
T2 sequence (Q04912 with tags, fused parts or gaps isoform Q04912-2 DEL574-682/INS813Q): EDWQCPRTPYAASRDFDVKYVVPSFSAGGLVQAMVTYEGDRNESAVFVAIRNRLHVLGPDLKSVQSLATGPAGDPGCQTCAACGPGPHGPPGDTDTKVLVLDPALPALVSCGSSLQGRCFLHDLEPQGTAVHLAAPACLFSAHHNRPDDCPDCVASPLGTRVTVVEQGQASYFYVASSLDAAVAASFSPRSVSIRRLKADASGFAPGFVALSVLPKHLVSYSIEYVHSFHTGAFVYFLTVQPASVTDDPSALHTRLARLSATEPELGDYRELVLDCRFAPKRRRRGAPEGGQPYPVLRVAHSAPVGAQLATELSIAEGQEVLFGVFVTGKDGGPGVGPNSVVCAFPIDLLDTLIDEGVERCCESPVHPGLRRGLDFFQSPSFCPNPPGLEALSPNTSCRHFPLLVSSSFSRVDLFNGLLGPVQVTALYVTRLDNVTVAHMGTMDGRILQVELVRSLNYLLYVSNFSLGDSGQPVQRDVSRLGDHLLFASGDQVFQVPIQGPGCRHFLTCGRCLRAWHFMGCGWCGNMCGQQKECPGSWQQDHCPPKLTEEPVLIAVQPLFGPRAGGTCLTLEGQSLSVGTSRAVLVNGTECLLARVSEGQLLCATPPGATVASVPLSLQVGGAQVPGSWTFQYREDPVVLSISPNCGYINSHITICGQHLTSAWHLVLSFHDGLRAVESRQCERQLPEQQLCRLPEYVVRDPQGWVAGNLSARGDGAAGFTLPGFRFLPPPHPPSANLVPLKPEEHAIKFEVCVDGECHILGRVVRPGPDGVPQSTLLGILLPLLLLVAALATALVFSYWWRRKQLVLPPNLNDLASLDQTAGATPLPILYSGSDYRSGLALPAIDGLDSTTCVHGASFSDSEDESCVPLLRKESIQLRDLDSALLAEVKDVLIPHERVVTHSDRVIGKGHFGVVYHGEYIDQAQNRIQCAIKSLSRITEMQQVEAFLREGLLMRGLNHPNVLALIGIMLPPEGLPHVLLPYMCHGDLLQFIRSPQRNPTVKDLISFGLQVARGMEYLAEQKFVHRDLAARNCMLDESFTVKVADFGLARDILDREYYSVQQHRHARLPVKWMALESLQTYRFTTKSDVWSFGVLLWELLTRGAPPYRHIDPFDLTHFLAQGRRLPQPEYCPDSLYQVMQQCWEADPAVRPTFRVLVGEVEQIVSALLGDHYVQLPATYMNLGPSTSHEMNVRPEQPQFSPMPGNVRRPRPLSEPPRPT
T1 sequence (Q04912 25-1400): as the sequence (Q04912 25-1400) above

## CCOc1ccn(-c2ccc(F)cc2)c(=O)c1C(=O)Nc1ccc(Oc2ccnc3cc(-c4ccccn4)sc23)c(F)c1 [CJ12524, 4-ethoxy-N-(3-fluoro-4-(2-(pyridin-2-yl)thieno[3,2-b]pyridin-7-yloxy)phenyl)-1-(4-fluorophenyl)-2-oxo-1,2-dihydropyridin-3-carboxamide]
HCT8 [1]
  inhibition of the degree of cell metastasis (cell invasion): about 60%
[2]; Colo320HSR RON-active Δ160, according to the concentration
  expression of cleaved caspase 3 (apoptosis marker): increased
[2]; Colo320HSR RON-active Δ160, various concentrations, FIG. 7d
  apoptosis: increased
[3]; Colo320HSR RON-active Δ155, according to the concentration
  expression of cleaved caspase 3 (apoptosis marker): increased
[3]; Colo320HSR RON-active Δ155, various concentrations, FIG. 7d
  apoptosis: increased
[4]; all treated groups, FIG. 8b
  tumor weight upon completion of drug administration: reduced
[4]; [10]
  body weight of the mice: almost no decrease
  tumor growth (tumor size): inhibited
RON phosphorylation
  RON phosphorylation in tumor tissue: decreased
HCT8 [5]; HCT8
  expression of cleaved caspase 3: increased
HCT8 [5]; HCT8, various concentrations, according to the concentration, FIG. 7c
  apoptosis: increased
HT29; HT29
  expression of cleaved caspase 3: increased
HT29; HT29, various concentrations, according to the concentration, FIG. 7c
  apoptosis: increased
RON-active Δ160
  RON phosphorylation: reduced
RON-active Δ155
  RON phosphorylation: reduced
RON (p-RON) in HCT8
  RON phosphorylation: inhibited; also recorded: reduced
RON (p-RON) in HT29
  RON phosphorylation: inhibited; also recorded: reduced

## CCOc1ccn(-c2ccc(F)cc2)c(=O)c1C(=O)Nc1ccc(Oc2ccnc3cc(-c4cn(C)cn4)sc23)c(F)c1 [CJ12537, 4-ethoxy-N-(3-fluoro-4-(2-(1-methyl-1H-imidazol-4-yl)thieno[3,2-b]pyridin-7-yloxy)phenyl)-1-(4-fluorophenyl)-2-oxo-1,2-dihydropyridin-3-carboxamide]
[6]
  tumor volume: no noticeable change
[7]
  tumor formation: inhibited tumor formation
[8]; Colo320HSR RON Δ160, 30 MPK, vehicle = 1
  Tumor growth relative to vehicle (fold): 0.71 fold
[8]; RON-active variant Δ160
  tumor formation: inhibited tumor formation
[9]
  tumor formation: did not inhibit tumor formation at all
